According to the Kinase Knowledgebase extract (Sharma et al. 2016):

Legend:
EGFR = EGFR (UniProt P00533)
EGFR (murine) = EGFR (murine) (UniProt P00533); settings: nih3t3/c7
EGFR (murine), sequence (P00533 whole entry, looked up): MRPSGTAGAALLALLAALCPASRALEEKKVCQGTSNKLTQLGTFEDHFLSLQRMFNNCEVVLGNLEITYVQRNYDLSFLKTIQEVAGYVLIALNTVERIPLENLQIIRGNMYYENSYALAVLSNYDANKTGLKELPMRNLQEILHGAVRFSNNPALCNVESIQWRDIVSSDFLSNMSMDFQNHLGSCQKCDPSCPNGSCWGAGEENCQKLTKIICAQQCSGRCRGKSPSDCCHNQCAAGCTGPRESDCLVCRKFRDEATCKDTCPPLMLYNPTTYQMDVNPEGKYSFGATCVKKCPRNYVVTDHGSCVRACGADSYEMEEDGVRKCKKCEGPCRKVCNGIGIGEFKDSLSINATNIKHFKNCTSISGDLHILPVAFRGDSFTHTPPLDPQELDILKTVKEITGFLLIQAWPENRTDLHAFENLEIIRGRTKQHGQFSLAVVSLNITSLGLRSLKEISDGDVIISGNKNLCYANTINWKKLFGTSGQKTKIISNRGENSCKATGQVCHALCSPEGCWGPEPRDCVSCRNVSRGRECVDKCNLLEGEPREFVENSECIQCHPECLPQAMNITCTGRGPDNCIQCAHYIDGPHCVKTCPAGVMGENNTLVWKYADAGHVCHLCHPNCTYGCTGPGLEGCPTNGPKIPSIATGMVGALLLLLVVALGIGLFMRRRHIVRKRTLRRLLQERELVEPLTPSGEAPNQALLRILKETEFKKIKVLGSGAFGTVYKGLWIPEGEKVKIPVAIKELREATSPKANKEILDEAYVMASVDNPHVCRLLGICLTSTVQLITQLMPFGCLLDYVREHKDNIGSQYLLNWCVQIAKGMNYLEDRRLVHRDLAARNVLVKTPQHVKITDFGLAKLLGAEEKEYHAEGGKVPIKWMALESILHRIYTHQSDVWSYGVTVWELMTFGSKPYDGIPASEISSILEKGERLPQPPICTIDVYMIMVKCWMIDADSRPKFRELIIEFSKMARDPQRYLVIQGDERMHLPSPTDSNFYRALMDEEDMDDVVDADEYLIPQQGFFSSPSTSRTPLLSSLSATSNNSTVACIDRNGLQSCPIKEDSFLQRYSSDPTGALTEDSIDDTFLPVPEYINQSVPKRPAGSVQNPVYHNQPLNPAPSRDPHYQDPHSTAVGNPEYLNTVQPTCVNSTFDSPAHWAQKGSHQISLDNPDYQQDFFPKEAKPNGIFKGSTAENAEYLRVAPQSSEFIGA

EGFR, sequence (P00533 whole entry, looked up): as above

Row | SMILES | IC50 (EGFR) [µM] | IC50 (EGFR (murine)) [µM]
1 | CC1C/C(=C2/C(=O)Nc3ccccc32)c2ccccc21 (centres undefined) | > 100 | 
2 | COc1ccc2c(c1)C(CC(=O)O)C/C2=C1/C(=O)Nc2ccccc21 (centres undefined) | > 100 | > 100
3 | O=C1Nc2ccccc2/C1=C1\CCc2cc(Cl)ccc21 | > 100 | 
4 | O=C1Nc2ccccc2/C1=C1\CCc2cc(Br)ccc21 | > 100 | 
5 | COc1cc2c(cc1OC)/C(=C1\C(=O)Nc3ccccc31)CC2 | > 25 | 
6 | Nc1ccc2c(c1)CC/C2=C1/C(=O)Nc2ccccc21 | > 100 | 
7 | Cc1cccc2c1CC/C2=C1/C(=O)Nc2ccccc21 | > 100 | 
8 | COc1ccc2c(c1)CC/C2=C1/C(=O)Nc2ccccc21 | > 100 | 

Next, values leading:

Row | IC50 (EGFR) [µM] | IC50 (EGFR (murine)) [µM] | SMILES
9 | > 100 |  | COc1ccc2c(c1)/C(=C1\C(=O)Nc3ccccc31)CC2
10 | > 100 |  | CN(C)c1ccc2c(c1)CC/C2=C1/C(=O)Nc2ccccc21
11 | > 100 |  | O=C1Nc2ccccc2/C1=C1\CCc2cc(N3CCCCC3)ccc21
12 | > 100 | > 100 | O=C1Nc2ccccc2/C1=C1\CCc2ccccc21
